{
  "source": "patent US20180252705A1",
  "about": "“Myeloid Progenitor Cells in Kidney Disease” (Rush University Medical Center, priority 2015, published 2018)",
  "key": {"[1]": {"system": "BM myeloid cells", "test": "Flow cytometric analysis of BM cells (uPAR, Gr-1, Sca-1) in proteinuric animal models", "assay_type": "in vivo, mouse", "method": "(§1) Proteinuric animal models. i) LPS injected mice. Proteinuria was induced with single injection of LPS as described previously (Wei et al., 2008; Wei et al.,). Briefly, mice were injected with LPS (Sigma) i.p at a dose of 10 mg per kg body weight. The mice injected with PBS were used as a control. Twenty-four hours after LPS treatment, urine and blood samples were collected and kidney, femurs, and tibias were harvested from the sacrificed mice.\nii) Pod-Rac1, Inducible EGFP_CA-Rac1 transgenic mice. EGFP_CA-Rac1 transgenic mice were crossed to Nphs1-rtTA (NEF-rtTA) inducer mice to generate double transgenic (dTG, NEF×Rac1) mice. Male mice were used in this study. To induce transgene expression, regular chow was replaced with doxycycline (DOX)-supplemented chow (2,000 ppm; TestDiet). Single transgenic (EGFP_CA-Rac1) mice were used as a control. Twelve days after DOX diet, urine and blood samples were collected and kidney, femurs, and tibias were harvested from the sacrificed mice. Hi) Adiamycin (ADR) injected mice: Proteinuria was induced with single injection of ADR as described previously. (Wang et al.) Briefly, male BALB/c mice were injected with ADR (Doxorubicin Hydrochloride, Sigma) via the tail vein at a dose of 11 mg per kg body weight. Six days after ADR injection, urine and blood samples were collected and kidney, femurs, and tibias were harvested from the sacrificed mice. iv) TGF β1 transgenic mice: The transgenic mice that express an active form of TGF β1 under the control of murine albumin promoter developed proteinuria as described previously (Kopp et al.). Since the transgene is on the Y chromosome, male mice (<4-week-old) with severe phenotype were used. Littermate female mice were used as a control. v) Nephrotoxic serum (NTS) nephritis model: Proteinuria was induced by injection of NTS as described previously (Kistler et al.). Briefly, male C57BL6 mice were injected i.p with sheep anti-rabbit glomerular basement membrane antibody at a dose of 500 mg per kg body weight on consecutive days. The mice injected PBS were used as a control. Seven days after injection, urine and blood samples were collected and kidney, femurs, and tibias were harvested from the sacrificed mice. vi) BTBR ob/ob diabetic nephropathy (DN) model: The mouse strain BTBR with the ob/ob leptin-deficiency mutation developed severe type 2 diabetes with heavy proteinuria as described previously (Hudkins et al.). Wild-type (BTBR ob^+/+), heterozygous (BTBR ob^+/−), and homozygous (BTBR ob^−/−) mice were obtained by mating heterozygous (BTBR ob^+/−) mice. For DN model, 16-week-old homozygotes (BTBR ob^−/−) were used. Wild-type (BTBR ob^+/+) or heterozygote (BTBR ob^+/−) littermates were used as controls.\nPurification of mouse PBLs and BMCs. To collect blood, mice were anesthetized, then the blood was drawn from posterior vena cava into acid-citrate-dextrose (ACD, Sigma) solution-containing 1 ml syringe. After lysis of red blood cells (RBCs), blood leukocytes were washed and counted. For BMCs purification, femurs and tibias were taken and flushed with a syringe filled with Hank's balanced salt solution (HBSS, Life Technologies) containing 0.1% bovine serum albumin and 20 mM HEPES (pH 7.4). […]\nFlow cytometric analysis. […] And the cells were labeled for 30 minutes on ice with fluorescence-conjugated antibodies: Gr-1-allophycocyanin (APC), uPAR-phycoerythrin (PE), Sca-1-fluorescein isothiocyanate (FITC), c-kit-APC, and irrelevant IgG isotype control antibodies. […]"}, "[2]": {"system": "suPAR", "test": "Circulating and urinary suPAR levels (ELISA) in proteinuric animal models", "assay_type": "in vivo, mouse", "method": "(§2) Detection of circulating and urinary suPAR levels Mouse suPAR levels from plasma (and/or serum) and urine were evaluated by enzyme-linked immunosorbent assay (ELISA) kit (R&D systems) following the manufacturer's protocol.\nas §1\nii) Pod-Rac1, Inducible EGFP_CA-Rac1 transgenic mice. EGFP_CA-Rac1 transgenic mice were crossed to Nphs1-rtTA (NEF-rtTA) inducer mice to generate double transgenic (dTG, NEF×Rac1) mice. Male mice were used in this study. To induce transgene expression, regular chow was replaced with doxycycline (DOX)-supplemented chow (2,000 ppm; TestDiet). Single transgenic (EGFP_CA-Rac1) mice were used as a control. Twelve days after DOX diet, urine and blood samples were collected and kidney, femurs, and tibias were harvested from the sacrificed mice. Hi) Adiamycin (ADR) injected mice: Proteinuria was induced with single injection of ADR as described previously. […]"}, "[3]": {"system": "LPS-challenged mice", "test": "LPS-induced proteinuria after pretreatment, albumin creatinine ratio (ACR)", "assay_type": "in vivo, mouse", "conditions": "agent given prior to LPS challenge; urine 24 hours after LPS; compared to LPS alone / isotype control", "method": "(§3) Albumin creatinine ratio (ACR) measurement Mouse urine samples were collected and urinary albumin and creatinine were measured by mouse albumin ELISA (Bethyl Labs), and creatinine assay (Cayman chemical) kits according to manufacturers' protocols. The ratio of urinary albumin to creatinine was then calculated.\nas §1\nIn vivo depletion. Anti-Ly6G monoclonal antibody (1A8, BioXcell) or control rat IgG2a antibody (2A3, BioXcell) was injected i.p into mice (500 μg per mouse) 48 hours and 1 hour prior to LPS injection. Neutrophil depletion was confirmed by flow cytometric analysis.\n(§4) Treatment of granulocyte colony stimulating factor (G-CSF). Recombinant mouse G-CSF (Shenandoah Biotechology INC) was administrated by daily i.p injection into BALB/c mice at a dose of 4 μg per 20 g body weight for 2 consecutive days. Blood cell counts were determined using a Hemavet 950FS (Drew Scientific).\nTreatment of plerixafor. […]"}, "[4]": {"system": "BM cells", "test": "in vitro LPS stimulation on isolated BM cells", "assay_type": "cell-based, mouse", "conditions": "LPS 0.1, 1 and 10 μg/ml, 24-hour incubation, dose-dependent", "method": "in vitro LPS stimulation on isolated BM cells. The BM cells were isolated from C57BL6 WT mice and treated with PBS or various concentrations of LPS (0.1, 1, and 10 μg/ml). Following 24-hour-incubation at 37 C in a CO2 incubator (5%), the cells and culture supernatants were collected. The cells were stained for uPAR, Sca-1, and Gr-1. The in vitro induction of uPAR+Sca-1^loGr-1^lo cells in total BM cells was determined by triple color-flow cytometric analysis. The culture supernatants were used for suPAR measurement."}, "[5]": {"system": "NSG mice", "test": "Proteinuria (ACR) in LPS injected NSG mice", "assay_type": "in vivo, mouse", "conditions": "LPS vs PBS, 24 hours after LPS administration", "method": "as §3, §1"}, "[6]": {"system": "suPAR", "test": "Plasma suPAR levels (ELISA) in pretreated LPS-challenged mice", "assay_type": "in vivo, mouse", "conditions": "G-CSF for two consecutive days prior to LPS; 24 hours after LPS; compared to LPS alone", "method": "as §2, §1, §4"}, "[7]": {"conditions": "ADR-induced nephropathy, male BALB/c, 11 mg per kg tail vein, six days after injection"}},
  "note": "“Also recorded” adds a separate entry of the source. Counter-ions that a name gives are not always drawn.",
  "data": [
    {"molecule": "COc1cccc2c1C(=O)c1c(O)c3c(c(O)c1C2=O)C[C@@](O)(C(=O)CO)C[C@@H]3O[C@H]1C[C@H](N)[C@H](O)[C@H](C)O1", "note": "[ADR, Doxorubicin Hydrochloride]", "values": [
      {"measurement": "percentage of Gr-1^lo myeloid cells in BM", "setting": "[1]; [7]", "result": "no significant increase"},
      {"measurement": "suPAR levels in the circulation or urine", "setting": "[2]; [7]", "result": "did not find elevated suPAR levels"}
    ]},
    {"molecule": "c1cc(CN2CCCNCCNCCCNCC2)ccc1CN1CCCNCCNCCCNCC1", "note": "[plerixafor, Plerixafor]", "values": [
      {"measurement": "proteinuria (ACR)", "setting": "[3]", "result": "did not enhance proteinuria"}
    ]},
    {"molecule": "lipopolysaccharide [LPS]", "values": [
      {"measurement": "expansion of uPAR-expressing MPCs (uPAR+Sca-1^lo Gr-1^lo cells in total BM cells)", "setting": "[4]", "result": "stimulated the expansion of uPAR-expressing MPCs"},
      {"measurement": "suPAR secretion into the culture medium", "setting": "[4]; suPAR ELISA", "result": "stimulated"},
      {"measurement": "proteinuria (ACR)", "setting": "[5]", "result": "resulting in proteinuria; also recorded: caused proteinuria"},
      {"measurement": "uPAR-expressing Sca-1/Gr-1^lo BM cell population (myeloid progenitor cells)", "setting": "[1]; LPS vs PBS injected mice, 24 hours", "result": "increased uPAR-expressing BM cell population; also recorded: increased the population of Sca-1^+Gr-1^lo myeloid progenitor cells"},
      {"measurement": "uPAR expression on BM myeloid cells (not peripheral blood myeloid cells)", "setting": "[1]; LPS-treated vs PBS-treated mice", "result": "elevated levels of uPAR; also recorded: increased uPAR expression"},
      {"measurement": "uPAR expression on BM myeloid cells", "setting": "[1]; NSG mice, LPS vs PBS", "result": "increased uPAR expression on BM myeloid cells"},
      {"measurement": "Gr-1^lo cells in BM (percentage; ratio to Gr-1^hi)", "setting": "[1]; WT mice, LPS vs PBS, 24 hours", "result": "significant increase; also recorded: markedly increased ratio"},
      {"measurement": "suPAR levels in blood and urine", "setting": "[2]; NSG mice, LPS vs PBS, 24 hours after LPS administration", "result": "elevated suPAR levels in both blood and urine; also recorded: enhanced blood suPAR levels"}
    ]},
    {"molecule": "G-CSF: Recombinant mouse G-CSF (Shenandoah Biotechology INC) (protein, UniProt P09920 31-208, looked up) Granulocyte …: VPLVTVSALPPSLPLPRSFLLKSLEQVRKIQASGSVLLEQLCATYKLCHPEELVLLGHSLGIPKASLSGCSSQALQQTQCLSQLHSGLCLYQGLLQALSGISPALAPTLDLLQLDVANFATTIWQQMENLGVAPTVQPTQSAMPAFTSAFQRRAGGVLAISYLQGFLETARLALHHLA", "values": [
      {"measurement": "plasma suPAR levels", "setting": "[6]", "result": "increased plasma suPAR levels; also recorded: enhanced plasma suPAR levels"},
      {"measurement": "proteinuria (ACR)", "setting": "[3]", "result": "accelerated proteinuria"}
    ]}
  ]
}
